The source of these data is patent US5578622A, “Isothiazole derivatives and their uses” (Asamura Patent Office, priority 1994, dated 1996).

Test [1] has as its system Pseudoperonospora cubensis. In words: Test for controlling effect on downy mildew of cucumber. In kind it is in vivo. The following applies: 168 h, 200 ppm spray, one day before inoculation, cucumber 2-leaf stage, read-out: Controlling effect (control of disease), Downy mildew of cucumber. In outline:
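200 ppm compound sprayed on potted 2-leaf cucumber; P. cubensis zoospores spray-inoculated one day later. Plants kept 1 day in humid room at 25° C, then 6 days in greenhouse. Control computed from per-leaf infection relative to untreated plot.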

Test [2] relates to Candida albicans IFO 1270. In words: In vitro antimycotic activity on Candida albicans. In kind it is cell-based. The following applies: IFO1270, 10 (ppm), SGB, 37° C., 48 hours, turbidity at 650 nm, read-out: Antimycotic activity (growth inhibitory rate), C.albicans. The procedure: 3-1 In vitro antimycotic activity on Candida albicans
Candida albicans IFO 1270 pre-cultured on a Sabouraud's glucose agar (SGA) plate medium at 37° C. […] was suspended in a sterilized physiological salt solution. The number of fungi in the resulting suspension was counted with a globulimeter, and adjusted so as to be 1×10^7 cell/ml with a sterilized physiological salt solution. This solution was used as an inoculum solution. Thereafter, 0.1 ml of this solution and 0.1 ml of a dimethyl sulfoxide (DMSO) solution of the test compound were added to 9.8 ml of Sabouraud's glucose broth (SGB), and shake-cultured at 37° C. for 48 hours. After culture, the medium turbidity was measured at 650 nm, and the growth-inhibitory rate of the fungus was calculated according to the following equation.
Growth inhibitory rate (%)=(1-W/Y)×100
Y: Medium turbidity of DMSO control group
W: Medium turbidity of test compound group
From this inhibitory rate, the antimycotic activity was shown by the symbols A to D. The test results of the test compounds are shown in Table 4.

Another test deals with Tyromyces palustris. In words: Test for wood rotting-preventing effect (mycelium growth inhibition on malt extract agar). The following applies: 28° C.±2° C., 2 to 10 days, read-out: Rotting preventing effect (mycelium growth-inhibitory rate), TYP. Format: cell-based. The method in brief:
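Mycelial agar disks (4 mm) were placed on malt extract agar containing test compound at 50 ppm and grown at 28° C.±2° C. Colony diameter was measured 2-10 days after inoculation and converted to percent mycelium growth inhibition, reported as symbol grades.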

In the case of `N#Cc1c(OC(F)F)nsc1OCCC#CI` [Compound 82], the pest or weed control at 200 ppm in test [1] fell in the range of 95 to 100%. In test [2], the inhibition of growth at 10 µg/mL is 100%. In the test with Tyromyces palustris, the inhibition at 50 ppm is 95 to 100%.
For `CSc1snc(OCCC#CI)c1C#N` [Compound 70], the pest or weed control at 200 ppm in test [1] is 80 to 94%. Besides, the inhibition of growth at 10 µg/mL in test [2] came out at 100%. The inhibition at 50 ppm in the test with Tyromyces palustris is 95 to 100%.
For `N#Cc1c(OC(F)F)nsc1SCOCC#CI` [Compound 60], the pest or weed control at 200 ppm in test [1] fell in the range of 95 to 100%. Moreover, the inhibition of growth at 10 µg/mL in test [2] was 100%. Moreover, the inhibition at 50 ppm in the test on Tyromyces palustris was 95 to 100%.
For the molecule `CS(=O)(=O)c1snc(OCC#CI)c1C#N` [Compound 41, 3-(3-iodo-2-propynyloxy)-4-cyano-5-methylsulfonylisothiazole], the pest or weed control at 200 ppm in test [1] is 95 to 100%. The inhibition of growth at 10 µg/mL in test [2] was determined as 100%. Besides, the inhibition at 50 ppm in the test with Tyromyces palustris is 95 to 100%.
Regarding `CC(C)Oc1snc(OCC#CI)c1C#N` [Compound 23], the pest or weed control at 200 ppm in test [1] was 95 to 100%. Also, the inhibition of growth at 10 µg/mL in test [2] is 100%. Moreover, the inhibition at 50 ppm with Tyromyces palustris was 95 to 100%.
As for `N#Cc1c(OCOCC#CI)nsc1SC(F)F` [Compound 90], the pest or weed control at 200 ppm in test [1] lay in the range of 95 to 100%. Moreover, the inhibition of growth at 10 µg/mL in test [2] was 100%. Besides, in the test on Tyromyces palustris, the inhibition at 50 ppm fell in the range of 95 to 100%.
Consider `CCOc1snc(OCOCC#CI)c1C#N` [Compound 96], for which the pest or weed control at 200 ppm in test [1] lay in the range of 95 to 100%. In addition, the inhibition of growth at 10 µg/mL in test [2] was 100%. Besides, the inhibition at 50 ppm in the test on Tyromyces palustris is 95 to 100%.
`CCOc1nsc(SCOCC#CI)c1C#N` [Compound 54]: in test [1], the pest or weed control at 200 ppm lay within 95 to 100%. In addition, the inhibition of growth at 10 µg/mL in test [2] came to 100%. The inhibition at 50 ppm in the test with Tyromyces palustris was 95 to 100%.
`CSc1snc(OCC#CI)c1C#N` [Compound 1, 3-(3-iodo-2-propynyloxy)-4-cyano-5-methylthioisothiazole]: the pest or weed control at 200 ppm in test [1] lay in the range of 95 to 100%. Also, in test [2], the inhibition of growth at 10 µg/mL amounted to 100%. For the same molecule, in the test on Tyromyces palustris, the inhibition at 50 ppm fell in the range of 95 to 100%.
In the case of `COc1snc(OCC#CI)c1C#N` [Compound 21, 3-(3-iodo-2-propynyloxy)-4-cyano-5-methoxyisothiazole], the pest or weed control at 200 ppm in test [1] was 95 to 100%. Besides, the inhibition of growth at 10 µg/mL in test [2] amounted to 100%. For the same molecule, in the test on Tyromyces palustris, the inhibition at 50 ppm lay in the range of 95 to 100%.
Consider `CN(C)c1snc(OCC#CI)c1C#N` [Compound 30, 3-(3-iodo-2-propynyloxy)-4-cyano-5-dimethylaminoisothiazole], for which the pest or weed control at 200 ppm in test [1] lay within 95 to 100%. The inhibition of growth at 10 µg/mL in test [2] worked out at 100%. In addition, the inhibition at 50 ppm with Tyromyces palustris lay in the range of 95 to 100%.
Turning to `N#Cc1c(OCC#CI)nsc1SC(F)F` [Compound 12, 3-(3-iodo-2-propynyloxy)-4-cyano-5-difluoromethylthioisothiazole], the pest or weed control at 200 ppm in test [1] is 95 to 100%. For the same molecule, the inhibition of growth at 10 µg/mL in test [2] is 100%. For the same molecule, the inhibition at 50 ppm in the test on Tyromyces palustris was in the range of 95 to 100%.
Turning to `CSc1snc(OC(C)OCC#CI)c1C#N` (stereo not drawn) [Compound 119], the pest or weed control at 200 ppm in test [1] is 95 to 100%. Besides, the inhibition of growth at 10 µg/mL in test [2] is 100%. The inhibition at 50 ppm with Tyromyces palustris was 95 to 100%.
Turning to `CSc1nsc(SCOCC#CI)c1C#N` [Compound 136], the pest or weed control at 200 ppm in test [1] is 95 to 100%. The inhibition of growth at 10 µg/mL in test [2] amounted to 100%. Further, in the test with Tyromyces palustris, the inhibition at 50 ppm lay within 95 to 100%.
For `COc1nsc(OCC#CI)c1C#N` [Compound 48], the pest or weed control at 200 ppm in test [1] fell in the range of 95 to 100%. Further, the inhibition of growth at 10 µg/mL in test [2] was found to be 100%. Besides, the inhibition at 50 ppm with Tyromyces palustris was in the range of 95 to 100%.
Take `N#Cc1c(OCC#CI)nsc1S(=O)(=O)C(F)F` [Compound 43]: in test [1], the pest or weed control at 200 ppm was 95 to 100%. Moreover, the inhibition of growth at 10 µg/mL in test [2] is 100%. For the same molecule, in the test on Tyromyces palustris, the inhibition at 50 ppm is 95 to 100%.
